Results from PubChem BioAssay (NCI).
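48-hour exposure; five concentrations; linearly interpolated endpoints. At the TGI there is no net growth.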 Activity calls are given as the source filed them. Cut-off read from the data, not from the text of the source: active = GI50 below about 0.43 µM; inactive = the rest.

Assays:
Assay in all cases: growth of human tumour cells (NCI), 48 h
[1] = tested on: SK-OV-3 ovarian
[2] = tested on: NCI-H23 lung
[3] = tested on: SNB-75 CNS
[4] = tested on: KM20L2 colon
[5] = tested on: UACC-257 melanoma
[6] = tested on: LOX IMVI melanoma
[7] = tested on: M19-MEL melanoma
[8] = tested on: LXFL 529 NSCLC
[9] = tested on: SF-268 CNS
[10] = tested on: HOP-62 NSCLC
[11] = tested on: ACHN renal
[12] = tested on: KM12 colon
[13] = tested on: SK-MEL-28 melanoma
[14] = tested on: SNB-78 CNS
[15] = tested on: TK-10 renal
[16] = tested on: OVCAR-8 ovarian
[17] = tested on: HOP-92 NSCLC
[18] = tested on: UO-31 renal
[19] = tested on: DMS 114 small cell lung
[20] = tested on: A549 NSCLC
[21] = tested on: SW-620 colon
[22] = tested on: SK-MEL-5 melanoma
[23] = tested on: HCT-116 colon
[24] = tested on: SK-MEL-2 melanoma
[25] = tested on: A498 renal
[26] = tested on: M14 melanoma
[27] = tested on: RPMI-8226 leukemia
[28] = tested on: MOLT-4 leukemia
[29] = tested on: COLO 205 colon
[30] = tested on: CCRF-CEM leukemia
[31] = tested on: CAKI-1 renal
[32] = tested on: IGROV1 ovarian
[33] = tested on: EKVX NSCLC
[34] = tested on: NCI-H460 lung
[35] = tested on: K-562 leukemia
[36] = tested on: RXF-631 renal
[37] = tested on: SR leukemia
[38] = tested on: SF-295 CNS
[39] = tested on: NCI-H226 lung
[40] = tested on: NCI-H522 lung
[41] = tested on: UACC-62 melanoma
[42] = tested on: SF-539 CNS
[43] = tested on: SN12C renal
[44] = tested on: HCT-15 colon
[45] = tested on: HT29 colon
[46] = tested on: DLD-1 colon
[47] = tested on: OVCAR-5 ovarian
[48] = tested on: OVCAR-4 ovarian
[49] = tested on: SNB-19 CNS
[50] = tested on: U251 CNS
[51] = tested on: HL-60(TB) leukemia
[52] = tested on: XF 498 CNS
[53] = tested on: RXF 393 renal
[54] = tested on: DMS 273 small cell lung
[55] = tested on: HCC-2998 colon
[56] = tested on: 786-0 renal
[57] = tested on: OVCAR-3 ovarian
[58] = tested on: MALME-3M melanoma

O=C(Nc1ccccc1)C(=O)C(C(=O)c1ccccc1F)C1OC(=O)c2ccccc21 (centres undefined)
TGI [1]: > 100 µM | TGI [2]: > 100 µM | TGI [3]: 72.2 µM | TGI [4]: > 100 µM | TGI [5]: > 100 µM | TGI [6]: 63.2 µM | TGI [7]: > 100 µM | TGI [8]: > 100 µM | TGI [9]: 81 µM | TGI [10]: > 100 µM | TGI [11]: > 100 µM | TGI [12]: > 100 µM | TGI [13]: > 100 µM | TGI [14]: > 100 µM | TGI [15]: > 100 µM | TGI [16]: 55 µM | TGI [17]: > 100 µM | TGI [18]: > 100 µM | TGI [19]: 61.7 µM | TGI [20]: > 100 µM | TGI [21]: > 100 µM | TGI [22]: > 100 µM | TGI [23]: 49.9 µM | TGI [24]: 93.8 µM | TGI [25]: > 100 µM | TGI [26]: > 100 µM | TGI [27]: > 100 µM | TGI [28]: > 100 µM | TGI [29]: 43.2 µM | TGI [30]: > 100 µM | TGI [31]: > 100 µM | TGI [32]: > 100 µM | TGI [33]: > 100 µM | TGI [34]: > 100 µM | TGI [35]: > 100 µM | TGI [36]: > 100 µM | TGI [37]: 77.9 µM | TGI [38]: > 100 µM | TGI [39]: 62.6 µM | TGI [40]: 61.8 µM | TGI [41]: > 100 µM | TGI [42]: 43.2 µM | TGI [43]: > 100 µM | TGI [44]: 67.3 µM | TGI [45]: > 100 µM | TGI [46]: > 100 µM | TGI [47]: > 100 µM | TGI [48]: > 100 µM | TGI [49]: > 100 µM | TGI [50]: 46.9 µM | TGI [51]: 75.6 µM | TGI [52]: > 100 µM | TGI [53]: 63.2 µM | TGI [54]: > 100 µM | TGI [55]: 57.4 µM

COC(=O)C1(COCc2ccccc2)CCCC2OC21 (centres undefined)
outcome [1]: inactive | outcome [2]: inactive | outcome [3]: inactive | outcome [4]: inactive | outcome [5]: inactive | outcome [6]: inactive | outcome [7]: inactive | outcome [8]: inactive | outcome [9]: inactive | outcome [10]: inactive | outcome [11]: inactive | outcome [12]: inactive | outcome [14]: inactive | outcome [16]: inactive | outcome [17]: inactive | outcome [18]: inactive | outcome [19]: inactive | outcome [56]: inactive | outcome [20]: inactive | outcome [21]: inactive | outcome [23]: inactive | outcome [24]: inactive | outcome [26]: inactive | outcome [27]: inactive | outcome [28]: inactive | outcome [29]: inactive | outcome [30]: inactive | outcome [31]: inactive | outcome [32]: inactive | outcome [33]: inactive | outcome [34]: inactive | outcome [35]: inactive | outcome [36]: inactive | outcome [37]: inactive | outcome [38]: inactive | outcome [39]: inactive | outcome [40]: inactive | outcome [41]: inactive | outcome [57]: inactive | outcome [42]: inactive | outcome [43]: inactive | outcome [44]: inactive | outcome [45]: inactive | outcome [46]: inactive | outcome [47]: inactive | outcome [48]: inactive | outcome [49]: inactive | outcome [50]: inactive | outcome [51]: inactive | outcome [58]: inactive | outcome [52]: inactive | outcome [53]: inactive | outcome [54]: inactive | outcome [55]: inactive

Cc1[nH]c2ccccc2c1-c1n[nH]c(=O)c2ccccc12
TGI [1]: 72.1 µM | TGI [2]: > 100 µM | TGI [3]: 57.9 µM | TGI [4]: 92.6 µM | TGI [5]: > 100 µM | TGI [7]: > 100 µM | TGI [8]: > 100 µM | TGI [10]: 50.3 µM | TGI [11]: > 100 µM | TGI [12]: > 100 µM | TGI [13]: > 100 µM | TGI [14]: > 100 µM | TGI [15]: > 100 µM | TGI [16]: > 100 µM | TGI [18]: 61.9 µM | TGI [19]: 58.7 µM | TGI [56]: > 100 µM | TGI [20]: > 100 µM | TGI [21]: > 100 µM | TGI [22]: 41 µM | TGI [23]: 35.8 µM | TGI [24]: > 100 µM | TGI [25]: 63.5 µM | TGI [26]: > 100 µM | TGI [27]: 74.7 µM | TGI [28]: 81.3 µM | TGI [30]: > 100 µM | TGI [31]: > 100 µM | TGI [32]: > 100 µM | TGI [33]: > 100 µM | TGI [34]: > 100 µM | TGI [35]: > 100 µM | TGI [36]: 66.1 µM | TGI [38]: 91.8 µM | TGI [39]: 85.3 µM | TGI [41]: > 100 µM | TGI [57]: 67.3 µM | TGI [42]: > 100 µM | TGI [44]: > 100 µM | TGI [45]: > 100 µM | TGI [46]: > 100 µM | TGI [47]: > 100 µM | TGI [48]: > 100 µM | TGI [50]: > 100 µM | TGI [51]: 55.6 µM | TGI [58]: 74.4 µM | TGI [52]: 76.2 µM | TGI [53]: 37.1 µM | TGI [54]: 72.9 µM | TGI [55]: > 100 µM
